Assay results reported in ChEMBL document CHEMBL2086270, “Rational Design, Synthesis, and SAR of a Novel Thiazolopyrimidinone Series of Selective PI3K-beta Inhibitors” (ACS Med Chem Lett, 2012).
pEC50, pIC50: −log10 of the molar value. Calls of active or inactive are those of the source. The rule behind the calls is not given here.

Key:
Mus musculus [1] = assay: Inhibition of PI3K beta in human PTEN-deficient PC3 cells xenografted in nude mouse assessed as inhibition of AKT Ser473 phosphorylation at 100 mg/kg at 1 hr; format: functional; conditions: PC-3, 1 h
Blood = assay: Ratio of drug uptake in blood at 300 mg/kg to drug uptake in blood at 100 mg/kg in nude mouse bearing PC3 cells; format: functional, PC-3
Mus musculus [2] = assay: Inhibition of PI3K beta in human PTEN-deficient PC3 cells xenografted in nude mouse assessed as inhibition of AKT Ser473 phosphorylation at 300 mg/kg at 24 hrs; format: functional; conditions: PC-3, 24 h
[3] = biological target: Phosphatidylinositol 4,5-bisphosphate 3-kinase catalytic subunit alpha isoform (Homo sapiens, UniProt P42336); assay: Inhibition of PI3K alpha by continuous TR-FRET assay
[4] = Oral bioavailability in CD mouse at 100 mg/kg; format: ADME, organism-based; conditions: in vivo
[5] = Half life in CD mouse at 0.3 mg/kg, iv; format: ADME, organism-based; design: dose 0.3 mg/kg, route intravenous; conditions: in vivo
MDA-MB-468 = assay: Antiproliferative activity against PTEN-deficient human MDA-MB-468 cells; format: functional
PC-3 = assay: Antitumor activity against human PC3 cells xenografted in nude mouse assessed as tumor growth inhibition at 100 and 300 mg/kg administered QD for 21 days relative to vehicle-treated control; format: functional, organism-based; design: dose 300 mg/kg
Mus musculus [6] = assay: Inhibition of PI3K beta in human PTEN-deficient PC3 cells xenografted in nude mouse assessed as inhibition of AKT Ser473 phosphorylation at 100 mg/kg at 10 hrs; format: functional; conditions: PC-3, 10 h
Mus musculus [7] = assay: Inhibition of PI3K beta in human PTEN-deficient PC3 cells xenografted in nude mouse assessed as inhibition of AKT Ser473 phosphorylation at 100 mg/kg at 6 hrs; format: functional; conditions: PC-3, 6 h
Mus musculus [8] = assay: Inhibition of PI3K beta in human PTEN-deficient PC3 cells xenografted in nude mouse assessed as inhibition of AKT Ser473 phosphorylation at 300 mg/kg at 6 hrs; format: functional; conditions: PC-3, 6 h
Mus musculus [9] = assay: Inhibition of PI3K beta in human PTEN-deficient PC3 cells xenografted in nude mouse assessed as inhibition of AKT Ser473 phosphorylation at 300 mg/kg at 4 hrs; format: functional; conditions: PC-3, 4 h
Mus musculus [10] = assay: Inhibition of PI3K beta in human PTEN-deficient PC3 cells xenografted in nude mouse assessed as inhibition of AKT Ser473 phosphorylation at 300 mg/kg at 1 hr; format: functional; conditions: PC-3, 1 h
[11] = biological target: T1, Phosphatidylinositol 4,5-bisphosphate 3-kinase catalytic subunit delta isoform (Homo sapiens, UniProt O00329); assay: Inhibition of PI3K delta by continuous TR-FRET assay
T1 sequence (O00329 whole entry): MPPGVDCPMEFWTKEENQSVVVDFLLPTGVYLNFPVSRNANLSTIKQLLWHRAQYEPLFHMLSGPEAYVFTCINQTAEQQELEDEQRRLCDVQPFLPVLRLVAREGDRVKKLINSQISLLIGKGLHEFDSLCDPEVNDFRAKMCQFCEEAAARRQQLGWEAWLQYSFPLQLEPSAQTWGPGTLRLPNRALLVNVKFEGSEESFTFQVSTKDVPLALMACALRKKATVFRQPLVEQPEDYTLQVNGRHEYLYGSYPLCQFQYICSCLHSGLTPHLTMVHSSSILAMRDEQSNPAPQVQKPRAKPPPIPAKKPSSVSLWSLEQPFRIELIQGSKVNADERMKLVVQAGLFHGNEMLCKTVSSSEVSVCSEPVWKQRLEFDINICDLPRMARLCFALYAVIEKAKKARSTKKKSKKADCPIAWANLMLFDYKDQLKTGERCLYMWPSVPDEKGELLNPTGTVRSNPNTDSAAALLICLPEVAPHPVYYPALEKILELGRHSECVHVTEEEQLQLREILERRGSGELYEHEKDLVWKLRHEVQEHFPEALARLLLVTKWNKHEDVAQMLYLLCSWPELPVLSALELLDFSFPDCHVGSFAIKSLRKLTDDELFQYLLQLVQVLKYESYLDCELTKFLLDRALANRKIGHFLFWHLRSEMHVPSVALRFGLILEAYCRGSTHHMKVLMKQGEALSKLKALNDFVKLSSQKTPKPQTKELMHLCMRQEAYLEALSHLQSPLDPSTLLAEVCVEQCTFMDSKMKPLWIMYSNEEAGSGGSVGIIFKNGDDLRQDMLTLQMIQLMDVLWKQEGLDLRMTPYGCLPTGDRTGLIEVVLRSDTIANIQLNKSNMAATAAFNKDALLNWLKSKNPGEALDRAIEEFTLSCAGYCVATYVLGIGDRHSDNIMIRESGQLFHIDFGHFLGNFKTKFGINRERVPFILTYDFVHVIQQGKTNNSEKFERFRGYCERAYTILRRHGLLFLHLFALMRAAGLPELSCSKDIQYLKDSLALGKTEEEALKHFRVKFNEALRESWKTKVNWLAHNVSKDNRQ

Mus musculus [12] = assay: Inhibition of PI3K beta in human PTEN-deficient PC3 cells xenografted in nude mouse assessed as inhibition of AKT Ser473 phosphorylation at 100 mg/kg at 2 hrs; format: functional; conditions: PC-3, 2 h
Mus musculus [13] = assay: Inhibition of PI3K beta in human PTEN-deficient PC3 cells xenografted in nude mouse assessed as inhibition of AKT Ser473 phosphorylation at 300 mg/kg at 10 hrs; format: functional; conditions: PC-3, 10 h
Mus musculus [14] = assay: Inhibition of PI3K beta in human PTEN-deficient PC3 cells xenografted in nude mouse assessed as inhibition of AKT Ser473 phosphorylation at 300 mg/kg at 2 hrs; format: functional; conditions: PC-3, 2 h
Mus musculus [15] = assay: Inhibition of PI3K beta in human PTEN-deficient PC3 cells xenografted in nude mouse assessed as inhibition of AKT Ser473 phosphorylation at 100 mg/kg at 8 hrs; format: functional; conditions: PC-3, 8 h
[16] = Clearance in CD mouse at 0.3 mg/kg, iv; format: ADME, organism-based; design: dose 0.3 mg/kg, route intravenous; conditions: in vivo
[17] = biological target: Phosphatidylinositol 4,5-bisphosphate 3-kinase catalytic subunit gamma isoform (Homo sapiens, UniProt P48736); assay: Inhibition of PI3K gamma by continuous TR-FRET assay
Mus musculus [18] = assay: Inhibition of PI3K beta in human PTEN-deficient PC3 cells xenografted in nude mouse assessed as inhibition of AKT Ser473 phosphorylation at 100 mg/kg at 4 hrs; format: functional; conditions: PC-3, 4 h
[19] = biological target: T2, Phosphatidylinositol 4,5-bisphosphate 3-kinase catalytic subunit beta isoform (Homo sapiens, UniProt P42338); assay: Inhibition of PI3K beta by continuous TR-FRET assay
Mus musculus [20] = assay: Inhibition of PI3K beta in human PTEN-deficient PC3 cells xenografted in nude mouse assessed as inhibition of AKT Ser473 phosphorylation at 100 mg/kg at 24 hrs; format: functional; conditions: PC-3, 24 h
[21] = biological target: T2, Phosphatidylinositol 4,5-bisphosphate 3-kinase catalytic subunit beta isoform; assay: Inhibition of PI3K beta in human PTEN-deficient MDA-MB-468 cells assessed as inhibition of Akt Ser473 phosphorylation; format: cell-based
Nucleic Acid = assay: Ratio of drug uptake in tumor at 300 mg/kg to drug uptake in tumor at 100 mg/kg in nude mouse bearing PC3 cells; format: functional, organism-based; conditions: Neoplasm, PC-3
Mus musculus [22] = assay: Toxicity in nude mouse xenografted with human PC3 cells assessed as body weight loss at 100 and 300 mg/kg administered QD for 21 days; format: organism-based, PC-3; design: dose 300 mg/kg; conditions: in vivo, 504 h
Mus musculus [23] = assay: Inhibition of PI3K beta in human PTEN-deficient PC3 cells xenografted in nude mouse assessed as inhibition of AKT Ser473 phosphorylation at 300 mg/kg at 8 hrs; format: functional; conditions: PC-3, 8 h
Mus musculus [24] = assay: Inhibition of PI3K beta in human PTEN-deficient PC3 cells xenografted in nude mouse assessed as inhibition of AKT Ser473 phosphorylation at 100 and 300 mg/kg; format: functional, organism-based; design: dose 300 mg/kg; conditions: PC-3, TDE = time-dependent effect
Mus musculus [25] = assay: Dose normalized AUC in CD mouse at 100 mg/kg, po; format: ADME, organism-based; design: dose 100 mg/kg, route oral; conditions: in vivo
[26] = Volume of distribution at steady state in CD mouse at 0.3 mg/kg, iv; format: ADME, organism-based; design: dose 0.3 mg/kg, route intravenous; conditions: in vivo, read-out: Vdss

T2 sequence (P42338 whole entry, canonical isoform): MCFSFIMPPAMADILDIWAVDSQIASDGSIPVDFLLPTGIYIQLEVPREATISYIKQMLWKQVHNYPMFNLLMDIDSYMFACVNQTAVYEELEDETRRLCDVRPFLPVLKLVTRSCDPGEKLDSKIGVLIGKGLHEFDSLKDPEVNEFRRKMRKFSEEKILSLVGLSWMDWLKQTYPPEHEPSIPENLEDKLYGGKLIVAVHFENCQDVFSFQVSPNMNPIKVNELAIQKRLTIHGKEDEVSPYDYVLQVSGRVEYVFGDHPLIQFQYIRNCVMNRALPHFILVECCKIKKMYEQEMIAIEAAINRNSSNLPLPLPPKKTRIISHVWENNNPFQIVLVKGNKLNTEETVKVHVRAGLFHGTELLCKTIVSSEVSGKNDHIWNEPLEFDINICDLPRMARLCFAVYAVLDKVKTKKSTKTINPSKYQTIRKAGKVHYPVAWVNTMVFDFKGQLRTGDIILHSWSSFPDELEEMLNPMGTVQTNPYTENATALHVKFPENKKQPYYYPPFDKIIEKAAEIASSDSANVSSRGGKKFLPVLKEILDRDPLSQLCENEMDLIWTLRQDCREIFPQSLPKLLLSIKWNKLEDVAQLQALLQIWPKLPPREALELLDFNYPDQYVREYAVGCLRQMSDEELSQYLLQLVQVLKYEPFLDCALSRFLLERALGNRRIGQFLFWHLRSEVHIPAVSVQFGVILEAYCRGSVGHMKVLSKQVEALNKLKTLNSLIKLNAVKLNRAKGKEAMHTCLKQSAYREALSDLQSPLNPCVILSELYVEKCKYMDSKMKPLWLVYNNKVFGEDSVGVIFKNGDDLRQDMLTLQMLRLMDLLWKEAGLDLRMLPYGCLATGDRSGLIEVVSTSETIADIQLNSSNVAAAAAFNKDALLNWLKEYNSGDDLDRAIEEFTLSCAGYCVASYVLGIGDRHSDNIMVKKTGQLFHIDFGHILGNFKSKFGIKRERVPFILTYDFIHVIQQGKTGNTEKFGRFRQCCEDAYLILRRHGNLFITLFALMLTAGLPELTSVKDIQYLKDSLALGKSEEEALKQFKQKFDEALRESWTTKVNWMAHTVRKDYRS
Chain of Phosphatidylinositol 4,5-bisphosphate 3-kinase catalytic subunit alpha isoform (P42336 whole entry, canonical isoform): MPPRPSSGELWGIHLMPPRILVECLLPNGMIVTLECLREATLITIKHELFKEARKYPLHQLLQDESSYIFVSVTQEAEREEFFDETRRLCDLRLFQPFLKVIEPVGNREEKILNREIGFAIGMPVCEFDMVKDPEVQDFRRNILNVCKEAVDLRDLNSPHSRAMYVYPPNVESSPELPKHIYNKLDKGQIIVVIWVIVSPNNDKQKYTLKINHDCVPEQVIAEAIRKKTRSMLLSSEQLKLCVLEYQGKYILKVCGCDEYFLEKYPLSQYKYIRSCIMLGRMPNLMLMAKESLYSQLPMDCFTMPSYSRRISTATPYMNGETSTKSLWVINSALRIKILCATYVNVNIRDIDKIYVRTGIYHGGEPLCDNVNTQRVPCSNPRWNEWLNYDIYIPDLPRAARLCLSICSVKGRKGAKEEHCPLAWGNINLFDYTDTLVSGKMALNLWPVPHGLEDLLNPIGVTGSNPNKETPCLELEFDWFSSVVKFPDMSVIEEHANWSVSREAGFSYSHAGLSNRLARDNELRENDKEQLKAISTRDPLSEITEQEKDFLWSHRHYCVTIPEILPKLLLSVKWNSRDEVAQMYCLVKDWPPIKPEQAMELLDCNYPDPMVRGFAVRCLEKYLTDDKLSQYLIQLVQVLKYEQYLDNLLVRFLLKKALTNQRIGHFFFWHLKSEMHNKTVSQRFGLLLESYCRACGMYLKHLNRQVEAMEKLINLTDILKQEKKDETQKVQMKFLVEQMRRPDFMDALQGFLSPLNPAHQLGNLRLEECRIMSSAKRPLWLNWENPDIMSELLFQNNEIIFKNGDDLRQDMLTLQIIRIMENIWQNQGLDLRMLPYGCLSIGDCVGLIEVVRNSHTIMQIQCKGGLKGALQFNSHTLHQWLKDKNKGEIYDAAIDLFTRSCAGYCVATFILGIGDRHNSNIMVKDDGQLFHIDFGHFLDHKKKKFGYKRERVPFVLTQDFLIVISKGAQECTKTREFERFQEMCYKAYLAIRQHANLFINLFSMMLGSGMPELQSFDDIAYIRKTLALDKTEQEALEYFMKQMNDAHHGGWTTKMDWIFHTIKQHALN
Chain of Phosphatidylinositol 4,5-bisphosphate 3-kinase catalytic subunit gamma isoform (P48736 whole entry, canonical isoform): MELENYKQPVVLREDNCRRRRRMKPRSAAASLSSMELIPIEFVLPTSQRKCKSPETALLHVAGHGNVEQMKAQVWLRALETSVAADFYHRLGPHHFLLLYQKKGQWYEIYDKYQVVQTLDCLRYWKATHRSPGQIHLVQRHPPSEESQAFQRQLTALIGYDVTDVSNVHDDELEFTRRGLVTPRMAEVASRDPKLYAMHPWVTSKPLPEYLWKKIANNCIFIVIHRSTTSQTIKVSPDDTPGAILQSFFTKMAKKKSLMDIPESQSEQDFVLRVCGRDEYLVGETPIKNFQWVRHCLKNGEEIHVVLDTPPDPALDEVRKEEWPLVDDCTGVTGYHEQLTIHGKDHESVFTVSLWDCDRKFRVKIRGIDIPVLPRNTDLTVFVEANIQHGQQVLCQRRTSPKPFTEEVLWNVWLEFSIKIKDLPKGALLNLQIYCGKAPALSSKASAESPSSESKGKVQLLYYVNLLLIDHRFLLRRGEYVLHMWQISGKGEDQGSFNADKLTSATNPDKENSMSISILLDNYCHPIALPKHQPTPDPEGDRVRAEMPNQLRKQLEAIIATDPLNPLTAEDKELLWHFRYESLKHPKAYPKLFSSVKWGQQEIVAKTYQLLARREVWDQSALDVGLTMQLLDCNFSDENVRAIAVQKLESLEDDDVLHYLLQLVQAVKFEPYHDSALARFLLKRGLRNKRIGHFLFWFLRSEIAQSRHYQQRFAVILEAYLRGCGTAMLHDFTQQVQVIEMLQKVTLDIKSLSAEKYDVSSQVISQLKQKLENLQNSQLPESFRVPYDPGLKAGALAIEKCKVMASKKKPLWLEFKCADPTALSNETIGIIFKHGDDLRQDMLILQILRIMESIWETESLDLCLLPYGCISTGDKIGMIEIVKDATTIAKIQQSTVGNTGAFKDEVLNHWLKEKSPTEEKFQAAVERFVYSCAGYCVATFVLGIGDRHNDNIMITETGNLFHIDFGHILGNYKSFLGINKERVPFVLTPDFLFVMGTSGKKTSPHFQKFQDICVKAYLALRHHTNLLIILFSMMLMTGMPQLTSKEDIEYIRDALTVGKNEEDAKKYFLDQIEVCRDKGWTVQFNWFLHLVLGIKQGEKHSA

Cc1c(Cn2c(C)nc(=O)c3sc(N4CCOCC4)nc32)cccc1C(F)(F)F
inhibition in vivo at 100 mg/kg (Mus musculus [1]): 63%
Ratio (Blood): 1.2
inhibition in vivo at 300 mg/kg (Mus musculus [2]): -1%
pIC50 [3]: 5.60
bioavailability [4]: 49%
half-life [5]: 1.2 h
GI50 (MDA-MB-468): 103 nM
TGI (PC-3): Active
inhibition in vivo at 100 mg/kg (Mus musculus [6]): 33%
inhibition in vivo at 100 mg/kg (Mus musculus [7]): 64%
inhibition in vivo at 300 mg/kg (Mus musculus [8]): 64%
inhibition in vivo at 300 mg/kg (Mus musculus [9]): 63%
inhibition in vivo at 300 mg/kg (Mus musculus [10]): 68%
pIC50 [11]: 7.70
inhibition in vivo at 100 mg/kg (Mus musculus [12]): 53%
inhibition in vivo at 300 mg/kg (Mus musculus [13]): 24%
inhibition in vivo at 300 mg/kg (Mus musculus [14]): 72%
inhibition in vivo at 100 mg/kg (Mus musculus [15]): 46%
clearance [16]: 29.6 mL/min/kg
pIC50 [17]: 6.10
inhibition in vivo at 100 mg/kg (Mus musculus [18]): 58%
pIC50 [19]: 9.22
inhibition in vivo at 100 mg/kg (Mus musculus [20]): -17%
pEC50 [21]: 7.62
Ratio (Nucleic Acid): 1.2
Activity (Mus musculus [22]): Non-toxic
inhibition in vivo at 300 mg/kg (Mus musculus [23]): 48%
inhibition (Mus musculus [24]): tde
AUC/dose (Mus musculus [25]): 278 ng/(hr.mL.mg.kg)
Vd [26]: 2.8 L/kg
